Results published in patent publication US5643784A, “Indan derivatives” (H, Lundbeck A/S, priority 1990, dated 1997).

Columns and labels:
5-HT2 receptors = biological target: T1, 5-HT2 receptors (Rattus norvegicus, UniProt P14842); test: Inhibition of 3H-ketanserin binding to 5-HT2 receptors in rat cortex in vitro; settings: 3H-Ketanserin 0.5 nM, rat cortex, 37° C., 30 min; read-out: Receptor Binding; IC50 5-HT2 3H-Ket
T1 construct: cortical tissue is dissected and weighed; from tissue; host or cells: cortex of male Wistar rats, crude membranes
T1 sequence (P14842 whole entry): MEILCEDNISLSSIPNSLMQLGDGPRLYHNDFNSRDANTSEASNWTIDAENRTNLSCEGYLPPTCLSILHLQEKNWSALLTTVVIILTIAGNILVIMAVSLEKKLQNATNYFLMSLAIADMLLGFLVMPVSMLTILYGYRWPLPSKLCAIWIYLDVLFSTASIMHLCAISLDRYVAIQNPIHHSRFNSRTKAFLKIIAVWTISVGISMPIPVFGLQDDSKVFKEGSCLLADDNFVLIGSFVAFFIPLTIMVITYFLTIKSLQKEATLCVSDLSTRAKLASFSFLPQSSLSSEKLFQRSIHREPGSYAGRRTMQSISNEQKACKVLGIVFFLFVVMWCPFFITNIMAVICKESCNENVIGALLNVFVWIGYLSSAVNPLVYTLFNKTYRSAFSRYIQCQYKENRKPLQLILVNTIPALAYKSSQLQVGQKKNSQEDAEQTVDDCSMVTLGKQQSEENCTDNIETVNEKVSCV
Protocol: Method in Hyttel, Pharmacology & Toxicology, 61, 126-129, 1987.
Male Wistar (Mol:Wist) rats (125-250 g) are sacrificed and cortical tissue is dissected and weighed. The tissue is homogenized (Ultra Turrax, 10 sec.) in 10 ml of ice-cold 50 mM tris buffer pH 7.7 (at 25° C.). The centrifuge glassware used in this step has been rinsed by sonication for 10 min. in ethanol. The homogenate is centrifuged twice at 20,000 g for 10 min. at 4° C. with rehomogenization of the pellet in 10 ml ice-cold buffer. The final pellet is homogenized in 500 vol (w/v) ice-cold buffer.
Incubation tubes kept on ice in triplicate receive 100 μl of drug solution in water (or water for total binding) and 2000 μl of tissue suspension (final tissue content corresponds to 4 mg original tissue). […] After incubation for 30 min. the samples are filtered under vacuum (0-50 mBar) through Whatman GF/F filters (25 mm). The tubes are rinsed with 5 ml ice-cold buffer which are then poured on the filters. Thereafter, the filters are washed with 2×5 ml of buffer. The filters are placed in counting vials and 4 ml of appropriate scintillation fluid (e.g. Picofluor™15) are added. After shaking for 1 h and storage 2 hrs in the dark the content of radioactivity is determined by liquid scintillation counting. Specific binding is obtained by subtracting the nonspecific binding in the presence of 1 μM mianserin.
(§1) For determination of the inhibition of binding five concentrations of drugs covering 3 decades are used.
The IC50 value is determined as the concentration at which the binding is 50% of the total binding in control samples minus the nonspecific binding in the presence of 1 μM mianserin.

dopamine D-2 receptors = biological target: T2, dopamine D-2 receptors (Rattus norvegicus, UniProt P61169); test: Inhibition of 3H-spiperone binding to dopamine D-2 receptors in rat corpus striatum in vitro; settings: 3H-spiperone 0.5 nM, rat corpus striatum, 37° C., 10 min; read-out: Receptor Binding; IC50 DA D-2 3H-Spi
T2 construct: striatal tissue is dissected and weighed; from tissue; host or cells: corpus striatum of male Wistar rats, crude membranes
T2 sequence (P61169 whole entry): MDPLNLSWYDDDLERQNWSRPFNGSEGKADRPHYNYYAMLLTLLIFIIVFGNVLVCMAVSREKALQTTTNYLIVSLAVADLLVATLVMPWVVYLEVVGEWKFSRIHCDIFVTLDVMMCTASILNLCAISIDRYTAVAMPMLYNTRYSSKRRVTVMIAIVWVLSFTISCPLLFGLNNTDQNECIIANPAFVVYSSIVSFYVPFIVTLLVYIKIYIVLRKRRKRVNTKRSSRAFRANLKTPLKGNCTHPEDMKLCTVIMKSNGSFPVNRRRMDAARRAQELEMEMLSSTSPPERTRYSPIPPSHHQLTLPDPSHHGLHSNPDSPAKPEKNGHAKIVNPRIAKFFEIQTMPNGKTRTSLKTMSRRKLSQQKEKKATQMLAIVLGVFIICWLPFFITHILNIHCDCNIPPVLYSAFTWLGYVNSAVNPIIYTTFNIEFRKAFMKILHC
Protocol: INHIBITION OF ^3 H-SPIPERONE BINDING TO DOPAMINE D-2 RECEPTORS IN RAT CORPUS STRIATUM IN VITRO
By this method the inhibition by drugs of the binding of ^3 H-spiperone (0.5 nM) to dopamine D-2 receptors in membranes from rat corpus striatum is determined in vitro.
(§2) Male Wistar (Mol:Wistar) rats (125-250 g) are sacrificed and striatal tissue is dissected and weighed. The tissue is homogenized (Ultra Turrax, 10 sec.) in 10 ml of ice-cold 50 mM K-phosphate buffer pH 7.4 (at 25° C.). The homogenate is centrifuged twice at 20,000 g for 10 min. at 4° C. with rehomogenization of the pellet in 10 ml ice-cold buffer. The final pellet is homogenized in 1300 vol (w/v) ice-cold buffer.
Incubation tubes kept on ice in triplicate receive 100 μl of drug solution in water (or water for total binding) and 4000 μl of tissue suspension (final tissue content corresponds to 3.08 mg original tissue). The binding experimental is initiated by addition of 100 μl of ^3 H-spiperone (final concentration 0.5 nM) and by placing the tubes in a 37° C. water bath. After incubation for 10 min. the samples are filtered under vacuum (0-50 mBar) through Whatman GF/F filters (25 mm). The tubes are rinsed with 5 ml ice-cold buffer which are then poured on the filters. Thereafter, the filters are washed with 2×5 ml of buffer. The filters are placed in counting vials and 4 ml of appropriate scintillation fluid (e.g. Picofluor ™15) are added. After shaking for 1 h and storage 2 hrs in the dark the content of radioactivity is determined by liquid scintillation counting. Specific binding is obtained by subtracting the nonspecific binding in the presence of 10 μM of 6,7-ADTN.
as §1
^3 H-Spiperone=[phenyl-4-^3 H]-spiperone from Amersham International plc. England, specific activity 15-25 Ci/mmol.

α1 adrenoceptors = test: Inhibition of 3H-prazosin binding to α1 adrenoceptors in rat brain in vitro; settings: 3H-Prazosin 0.25 nM, rat brain, 25° C., 20 min; read-out: Receptor Binding; IC50 α1 3H-Praz
Protocol: INHIBITION OF ^3 H-PRAZOSIN BINDING TO α1 ADRENOCEPTORS IN RAT BRAIN IN VITRO
Method and results in Hyttel & Larsen, J. Neurochem, 44, 1615-1622, 1985; Skarsfeldt & Hyttel, Eur. J. Pharmacol. 125, 323-340, 1986.
as §2, with “(Mol:Wist)” for “(Mol:Wistar)”, “(125-200” for “(125-250”, “brain” for “striatal”, “[…] Tris” for “mM K-phosphate”, “7,7” for “7.4”, “400” for “1300”
Incubation tubes kept on ice in triplicate receive 100 μl of drug solution in water (or water for total binding) and 4000μl of tissue suspension (final tissue content corresponds to 10 mg original tissue). The binding experiment is initiated by addition of 100 μl of ^3 H-Prazosin (final concentration 0.25 nM) and by placing the tubes in a 25° C. water bath. After incubation for 20 min. the samples are filtered under vacuum (0-50 mBar) through Whatman GF/F filters (25 mm). The tubes are rinsed with 5 ml ice-cold buffer which then are poured on the filters. Thereafter, the filters are washed with 5 ml of buffer. The filters are placed in counting vials and 4 ml of appropriate scintillation fluid (e.g. Picofluor™15) are added. After shaking for 1 h and storage 2 hrs in the dark the content of radioactivity is determined by liquid scintillation counting. Specific binding is obtained by subtracting the nonspecific binding in the presence of 1 μM of Prazosin.
as §1
The measured cpm are plotted against drug concentration on semilogarithmic paper and the best fitting S-shaped curve is drawn. The IC50 value is determined as the concentration at which the binding is 50% of the total binding in control samples minus the nonspecific binding in the presence of 1 μM of Prazosin.
^3 H-Prazosin=[furoyl-5-^3 H]-Prazosin from New England Nuclear, specific activity approximately 20 Ci/mmol.

| SMILES | IC50 (5-HT2 receptors) [nM] | IC50 (dopamine D-2 receptors) [nM] | IC50 (α1 adrenoceptors) [nM] |
| --- | --- | --- | --- |
| CSc1ccc2c(c1)[C@H](c1ccc(F)cc1)C[C@H]2N1CCN(CCN2CCN(C(C)C)C2=O)CC1 (relative stereo) [Compound 23, Trans-1-[2-[4-[3-(4-fluorophenyl)-5-(methylthio)-2,3-dihydro-1H-inden-1-yl]piperazin-1-yl]ethyl]-3-isopropyl-2-imidazolidinone] | 4 | 720 | 250 |
| Fc1ccc([C@@H]2C[C@@H](N3CCN(CCN4CCNC4=S)CC3)c3ccc(Cl)cc32)cc1 (relative stereo) [Compound 31, Trans-1-[2-[4-[5-chloro-3-(4-fluorophenyl)-2,3-dihydro-1H-inden-1-yl]piperazin-1-yl]ethyl]-2-imidazolidinthione] | 1.5 | 67 | 52 |
| CN1CCN(CCN2CCN([C@@H]3C[C@@H](c4ccc(F)cc4)c4cc(Cl)ccc43)CC2)C1=O (relative stereo) [Compound 18, Trans-1-[2-[4-[5-chloro-3-(4-fluorophenyl)-2,3-dihydro-1H-inden-1-yl]piperazin-1-yl]ethyl]-3-methyl-2-imidazolidinone] | 2.8 | 190 | 600 |
| Fc1ccc([C@@H]2C[C@@H](N3CCN(CCN4CCCC4=S)CC3)c3ccc(Cl)cc32)cc1 (relative stereo) [Compound 38] | 5.3 | 290 | 260 |
| CC(C)N1CCN(CCN2CCN([C@@H]3C[C@@H](c4ccc(Cl)cc4)c4cc(Cl)ccc43)CC2)C1=O (relative stereo) [Compound 27, Trans-1-[2-[4-[5-chloro-3-(4-chlorophenyl)-2,3-dihydro-1H-inden-1-yl]piperazin-1-yl]ethyl]-3-isopropyl-2-imidazolidinone] | 15 | 280 | 180 |
| CC(C)N1CCN(CCN2CCN([C@@H]3C[C@@H](c4ccc(F)cc4)c4cc(Br)ccc43)CC2)C1=O (relative stereo) [Compound 24, Trans-1-[2-[4-[5-bromo-3-(4-fluorophenyl)-2,3-dihydro-1H-inden-1-yl]piperazin-1-yl]ethyl]-3-isopropyl-2-imidazolidinone] | 6.4 | 240 | 270 |
| O=C1N(CCO)CCN1CCN1CCN([C@@H]2C[C@@H](c3ccc(F)cc3)c3cc(Cl)ccc32)CC1 (relative stereo) [Compound 37, Trans-1-[2-[4-[5-chloro-3-(4-fluorophenyl)-2,3-dihydro-1H-inden-1-yl]piperazin-1-yl]-ethyl]-3-(2-hydroxyethyl)-2-imidazolidinone] | 6.1 | 320 | 710 |
| Cc1cc([C@@H]2C[C@@H](N3CCN(CCN4CCNC4=O)CC3)c3ccc(Cl)cc32)cs1 (relative stereo) [Compound 7, Trans-1-[2-[4-[5-chloro-3-(2-methyl-4-thienyl)-2,3-dihydro-1H-inden-1-yl]piperazine-1-yl]ethyl]-2-imidazolidinone] | 7.9 | 2800 | 240 |
| CC(C)N1CCN(CCN2CCN([C@@H]3C[C@@H](c4ccc(F)cc4)c4cc(Cl)ccc43)CC2)C1=O (relative stereo) [Compound 11, Trans-1-[2-[4-[5-chloro-3-(4-fluorophenyl)-2,3-dihydro-1H-inden-1-yl]piperazin-1-yl]-ethyl]-3-isopropyl-2-imidazolidinone] | 3.9 | 280 | 260 |
| Fc1ccc([C@@H]2C[C@@H](N3CCNCC3)c3ccc(Cl)cc32)cc1 (relative stereo) [Compound 10, Trans-1-[5-chloro-3-(4-fluorophenyl)-2,3-dihydro-1H-inden-1-yl]piperazine] | 11 | 2500 | 840 |
| CC(C)N1CCN(CCN2CCN([C@@H]3C[C@@H](c4ccccc4)c4cc(Cl)ccc43)CC2)C1=O (relative stereo) [Compound 20, Trans-1-[2-[4-[5-chloro-3-phenyl-2,3-dihydro-1H-inden-1-yl]piperazin-1-yl]ethyl]-3-isopropyl-2-imidazolidinone] | 9.9 | 750 | 510 |
| CC(C)N1CCN(CCN2CCN([C@@H]3C[C@@H](c4ccccc4F)c4cc(Cl)ccc43)CC2)C1=O (relative stereo) [Compound 21, Trans-1-[2-[4-[5-chloro-3-(2-fluorophenyl)-2,3-dihydro-1H-inden-1-yl]piperazin-1-yl]ethyl]-3-isopropyl-2-imidazolidinone] | 3.5 | 920 | 670 |
| O=C1NCCN1CCN1CCN([C@H]2C[C@H](c3ccc(F)cc3)c3cc(C(F)(F)F)ccc32)CC1 (relative stereo) [Compound 1, Trans-1-[2-[4-[3-(4-fluorophenyl)-5-(trifluoromethyl)-2,3-dihydro-1H-inden-11-yl]-1-piperazinyl]ethyl]-2-imidazolidinone] | 2.9 | 760 | 320 |
| Fc1ccc([C@H]2C[C@H](N3CCNCC3)c3ccc(Cl)cc32)cc1 (single isomer, unassigned) [(-)-10] | 15 | 730 | 390 |
| CC(C)N1CCN(CCN2CCN([C@@H]3C[C@@H](c4ccc(F)cc4)c4cc(Cl)ccc43)CC2)C1=S (relative stereo) [Compound 36, Trans-1-[2-[4-[5-chloro-3-(4-fluorophenyl)-2,3-dihydro-1-H-inden-1-yl]piperazin-1-yl]ethyl]-3-isopropyl-2-imidazolidinthione] | 3.6 | 260 | 69 |
